Reference: US7955852B2, “Expansion of renewable stem cell populations” (Gamida Cell Ltd., priority 2002, dated 2011)

How the values were obtained:
CD34+ cells [1] = experiment: Ex-vivo expansion of CD34+ cell enriched cord blood cultures with cytokines; cell counts and FACS surface antigen analysis; assay type: cell-based, human; conditions: for CD34+ cells per ml: three weeks, SCF, FLt3, IL-6, IL-3, re-selected; for CD34+ (×10^4): 10^−5M
Description: Human blood cells were obtained from umbilical cord blood from female patients following full-term, normal delivery (informed consent was obtained).
Samples were collected and processed within 12 hours postpartum. Blood was mixed with 3% Gelatin (Sigma, St. Louis, Mo.), sedimented for 30 minutes to remove most red blood cells. […] The mononuclear cell fraction in the interface layer was collected, washed three times and resuspended in phosphate-buffered saline (PBS) solution (Biological Industries) containing 0.5% bovine serum albumin (BSA, Fraction V; Sigma).
To purify CD34^+ mononuclear cells, the fraction was subjected to two cycles of immuno-magnetic separation using the MiniMACS® or Clinimax® CD34 Progenitor Cell Isolation Kit (Miltenyi Biotec, Auburn, Calif.) as per manufacturer's recommendations.
CD34^+ expressing purified cells above were cultured in 24-well Costar Cell Culture Clusters (Corning Inc., Corning, N.Y.) or culture bags (American Fluoroseal Corp), at a concentration of 10^4 cells/ml in alpha medium (Biological Industries, Beit Haemek, Israel) supplemented with 10% fetal bovine serum (FBS, Biological Industries). The following human recombinant cytokines were added: Thrombopoietin (TPO), interleukin-6 (IL-6), FLT-3 ligand and stem cell factor (SCF), all at final concentrations of 50 ng/ml each, though occasionally IL-3, at a concentration of 20 ng/ml, was added either together or instead of SCF. For non-hematopoietic cell differentiation, FGF, EGF, NGF, VEGF, LIF or Hepatocyte growth factor (HGF) were used to supplement the growth medium, either alone or in various combinations. All cytokines used were purchased from Perpo Tech, Inc. (Rocky Hill, N.J.). The cultures were incubated at 37° C., 5% CO2, in a humidified atmosphere.
At weekly intervals, cell cultures were toped and semi-depopulated and were supplemented with fresh medium, serum and cytokines or supplemented with fresh growth medium, alone. At predetermined time points, cells were harvested, stained with trypan blue, counted, and cell morphology was determined via the use of cytospin (Shandon, UK)-prepared smears stained with May-Grunwald/Giemsa solutions.
CD34^+ purified and whole MNC cultures were prepared and maintained as described above. […] The antagonist was added for a predetermined, limited period, for up to three weeks or continuously during the entire culture period.
Cells were harvested, washed with a PBS solution containing 1% bovine sera albumin (BSA) and 0.1% sodium azide (Sigma), and stained at 4° C. for 60 minutes with fluorescein isothiocyanate or phycoerythrin-conjugated antibodies (all from Immunoquality Products, the Netherlands). The cells were then washed with the same buffer and analyzed by FACS caliber or Facstarplus flow cytometers. Cells were passed at a rate of 1000 cells/second, using saline as the sheath fluid. A 488 nm argon laser beam served as the light source for excitation. Emission of ten thousand cells was measured using logarithmic amplification, and analyzed using CellQuest software. Negative control staining of cells was accomplished with mouse IgG-PE (Dako A/S Glostrup, Denmark) and mouse IgG-FITC (BD Biosciences, Erembodegem, Belgium).
CD34 surface expression on short and long-term cultures initiated either with purified CD34^+ cells or the entire MNC fraction was determined as follows: CD34^+ cells were positively reselected (Miltenyi kit) and counted. Purity was confirmed by subsequent FACS and cell morphology analysis.
Reselected CD34^+ cell subsets were stained for the following combination of antigens: CD34PE/CD38FITC and CD34PE/38, 33, 14, 15, 3, 4, 61, 19 (Lin) FITC. The fraction positive for CD34 and negative for CD38 was defined as CD34^+CD38^−. The fraction positive for CD34 and negative for LIN was defined as CD34^+Lin^− cell fraction.
FACS analysis results are given as percentage values of cells. Absolute numbers of subsets are calculated from the absolute number of CD34^+ cells.

[2] = test system: Lin− c-kit+ Sca-1+ murine hematopoietic precursors; conditions: cited from earlier work
HL-60 cells = conditions: cited from earlier work
CD34+ cells [3] = experiment: Colony forming unit (CFU / LTC-CFUc) ability of ex-vivo CD34+ cell cultures; assay type: cell-based, human; conditions: 10^−5M
Description: Total cell counts, numbers of CD34^+ cells and subsets, and CFU numbers are presented as cumulative numbers, with the assumption that the cultures had not been passaged; i.e., the number of cells per ml were multiplied by the number of passages performed.
Cells were cloned in semi-solid, methylcellulose-containing medium supplemented with 2 IU/ml erythropoietin (Eprex, Cilag AG Int., Switzerland), stem cell factor and IL-3, both at 20 ng/ml, and G-CSF and GM-CSF, both at 10 ng/ml (all from Perpo Tech). Cultures were incubated for 14 days at 37° C., 5% CO2 in a humidified atmosphere.
Briefly, the ability of the cultures to maintain self-renewal was measured by determination of the content of colony forming unit cells in the long and extended long-term cultures (LTC-CFUc), as described in the references hereinabove.

[4] = TPO, FLT3, IL-6, IL-3, 3 weeks after seeding

CCCOc1cc2c(cc1\C(C)=C/C=C/C(C)=C/C(=O)O)C(C)(C)CCC2(C)C [LGN 100754]
activity on ex vivo expansion of stem/progenitor cells (CD34+ cells [1]; 10^−7 M, along with IL-3, 3 and 5 weeks): no activity

Cc1ccc(C2=CCC(C)(C)c3ccc(C#Cc4ccc(C(=O)O)cc4)cc32)cc1 [AGN 193109]
increase in the pre-CFU-S population ([2]; cultured for 7 days): approximately 6 fold | short- or long-term repopulating ability ([2]; cultured for 7 days): virtually no short- or long-term repopulating ability

CC1=C(/C=C/C(C)=C/C=C/C(C)=C/C(=O)O)C(C)(C)CCC1 [ATRA, all-trans-retinoic-acid]
generation of colony-forming cell (CFC) and colony-forming unit-spleen (CFU-S) ([2]; 1 μmol): enhanced

NC(=O)c1cccnc1 [Nicotinamide]
CD38 activity and differentiation (HL-60 cells): inhibited | CD34+ cells per ml (CD34+ cells [1]; 1 mM, TPO): 99 ×10^4 CD34+ cells per ml | CD34+ cells per ml (CD34+ cells [1]; 5 mM, TPO): 180 ×10^4 CD34+ cells per ml

CN1c2ccc([N+](=O)[O-])cc2N=C(c2ccc(C(=O)O)cc2)c2cc3c(cc21)C(C)(C)CCC3(C)C [HX-531, 4-[5H-2,3-(2,5-Dimethyl-2,5-Hexano) 5-Methyl-8-nitrodibenzo [b,e][1,4]diazepin-11-yl) Benzoic acid]
CD34+ (×10^4) (CD34+ cells [1]; 5 weeks after seeding): 1636 ×10^4 | CD34+ (×10^4) (CD34+ cells [1]; 9 weeks after seeding): 4977 ×10^4 | CD34+ (×10^4) (CD34+ cells [1]; 11 weeks after seeding): 4055 ×10^4 | CD34+ (×10^4) (CD34+ cells [1]; [4]): 167 ×10^4 | CFU (×10^3), mixed (CD34+ cells [3]; 3 weeks after seeding, mixed colonies): (120 mixed) ×10^3 | CFU (×10^3) (CD34+ cells [3]; 5 weeks after seeding): 8542 ×10^3 | CFU (×10^3) (CD34+ cells [3]; 9 weeks after seeding): 36557 ×10^3 | CFU (×10^3) (CD34+ cells [3]; 11 weeks after seeding): 67338 ×10^3 | CFU (×10^3) (CD34+ cells [3]; [4]): 1920 ×10^3
